Data from patent US20250205198A1, “METHODS FOR DELIVERY OF PSYCHEDELIC MEDICATIONS BY INHALATION AND SYSTEMS FOR PERFORMING THE METHODS” (Cybin IRL Limited, priority 2022, published 2025).

Key:
[1] = Plasma pharmacokinetics after oral gavage co-administration of DMT and DMT-d10 to male rats (Group 2); details: for bioavailability / AUC(0-t): male, Sprague Dawley, rat, po, 10 mg/kg; for bioavailability / AUC(0-t) / AUC0-1/dose: plasma; for time of peak plasma concentration postdose: oral administration 10 mg/kg; for AUC0-1/dose: dose normalized
[2] = Plasma pharmacokinetics after 20-minute snout-only inhalation (nebulized aerosol) co-administration of DMT and DMT-d10 to male rats (Group 6); details: for mean residence time (MRT) after inhalation compared to IV administration, fold greater: inhalation vs IV; for time of highest plasma concentration (first time point taken): after start of inhalation; for AUC0-1/dose: dose normalized
[3] = Plasma pharmacokinetics after intravenous (bolus) co-administration of DMT and DMT-d10 to male rats (Group 4); details: for AUC0-1/dose: dose normalized; for t1/2: calculated 0.083 to 1.0 hr
[4] = Brain pharmacokinetics and brain to plasma ratio after intravenous (bolus) co-administration of DMT and DMT-d10 to male rats (Group 4); details: for Kp: male, Sprague Dawley, rat, iv, 1 mg/kg
[5] = AUC0-t, male rats, oral gavage (OG) 10 mg/kg, co-administered
[6] = plasma, inhalation 14.3 mg/kg DMT, 15.5 mg/kg DMT-d10
[7] = plasma, male rats, inhalation 14.3 mg/kg DMT + 15.5 mg/kg DMT-d10
[8] = summary table, plasma, inhalation 14.3 mg/kg DMT, 15.5 mg/kg DMT-d10
[9] = male, Sprague Dawley, rat, plasma, iv, 1 mg/kg
[10] = plasma, male rats, IV bolus 1 mg/kg, co-administered
[11] = summary table, plasma, intravenous 1 mg/kg
[12] = brain, male rats, IV bolus 1 mg/kg, co-administered
[13] = male, Sprague Dawley, rat, plasma, inhaled or intranasal, 15.5 mg/kg

Row | Structure (SMILES) | bioavailability [1] [%] | AUC(0-t) [1, 5] [µg·h/mL] | time of peak plasma concentration postdose [1] [h] | AUC0-1/dose ([1]; oral 10 mg/kg) | mean residence time (MRT) after inhalation compared to IV administration, fold greater [2] | time of highest plasma concentration (first time point taken) ([2]; inhalation) [h] | AUC0-1/dose [2, 6] | AUC0-1 [2, 8] [µg·h/mL] | time of highest plasma concentration (first time point taken) ([3]; IV bolus 1 mg/kg) [h] | MRT last [3, 9] [min] | AUC0-1/dose ([3]; plasma, intravenous 1 mg/kg) | AUC0-1 [3, 10] [µg·h/mL] | AUC(0-t) [3, 10] [µg·h/mL] | AUC0-1 [3, 11] [µg·h/mL] | t1/2 [3, 11] [min] | AUC0-t (brain) [4, 12] [ng·h/g] | Cmax (brain) [4, 12] [ng/g] | Kp ([4]; brain) | further results
1 | CN(C)CCc1c[nH]c2ccccc12 [DMT, N,N-dimethyltryptamine, reference compound] | 1.36 | 0.109 | 1 | 1.52 | approximately 5 × | 0.333 | 18.2 | 0.26 | 0.083 | 12.7 | 112 | 0.112 | 0.112 | 0.112 | 10.3 | 1060 | 3430 | 9.5 | AUC(0-t) ([1]; AUC0-1, plasma, male rats, oral gavage (OG) 10 mg/kg, co-administered): 0.0152 µg·h/mL; AUC(0-t) ([1]; AUC0-1, summary table, oral 10 mg/kg): 0.0152 µg·h/mL; AUC(0-t) [2, 7]: 0.308 µg·h/mL; half-life [3, 9]: 10.3 min; AUC0-inf [3, 10]: 0.114 µg·h/mL; AUC0-inf (brain) [4, 12]: 1070 ng·h/g; t1/2 (brain) ([4]; brain, male rats, IV bolus 1 mg/kg, calculated 0.25 to 1 hr): 9.3 min
2 | [2H]C([2H])([2H])N(C([2H])([2H])[2H])C([2H])([2H])C([2H])([2H])c1c[nH]c2ccccc12 [DMT-d10, 2-(1H-indol-3-yl)-N,N-bis(methyl-d3)ethan-1-amine-1,1,2,2-d4] | 1.16 | 0.0802 | 1 | 0.878 | approximately 5 × | 0.333 | 17.0 | 0.264 | 0.083 | 19.6 | 75.4 | 0.0754 | 0.0754 | 0.0754 | 26.8 | 931 | 1490 | 12.3 | improvement of duration of exposure (MRTlast) by deuteration ([2]; DMT-d10 vs. DMT, after inhalation): 24.6%; increase of inhalation bioavailability by deuteration ([2]; DMT-d10 vs. DMT, inhalation): approximately 40%; inhalation bioavailability, fold greater than oral bioavailability ([2]; inhalation vs oral): approximately 20 ×; AUC0-inf [2, 13]: 0.384 µg·h/mL; half-life [2, 13]: 325 min; AUC0-1 [2, 7]: 0.264 µg·h/mL; t1/2 ([2]; summary table, plasma, inhalation 15.5 mg/kg DMT-d10, calculated 0.333 to 3.333 hr): 325 min; improvement of duration of exposure (MRTlast) by deuteration ([3]; DMT-d10 vs. DMT, after IV): 54.5%; t1/2 ([3]; plasma, male rats, IV bolus 1 mg/kg): 26.8 min; improvement of brain to plasma (B/P) ratio by deuteration ([4]; DMT-d10 vs. DMT, IV 1 mg/kg): approximately 30%
